This passage reports relative viability results from the supplement of paper PMC10307832.

Holding throughout (assay): relative viability (nuclei count vs DMSO), 5 days (fraction); higher = more cells survive
Compound in test [1]: CN(C)C[C@@H]1CCn2cc(c3ccccc32)C2=C(C(=O)NC2=O)c2cn(c3ccccc23)CCO1 [Ruboxistaurin] + CC(=O)c1c(C)c2cnc(Nc3ccc(N4CCNCC4)cn3)nc2n(C2CCCC2)c1=O [Palbociclib] (partner 0.5 µM)
The method in brief: (§1)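 One day after seeding in 1536-well plates, lung cancer cell lines were dosed by pin tool. Dosing was either single-drug or a fixed anchor-drug dose plus five library-drug doses (not always all listed) in √10 steps. After 5 days, nuclei were stained in one fix-and-stain step and counted on 4× images, and relative viability is the nuclei count of treated wells over that of vehicle wells, given as the median of duplicate plates.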

Compound in test [2]: CN(C)C[C@@H]1CCn2cc(c3ccccc32)C2=C(C(=O)NC2=O)c2cn(c3ccccc23)CCO1 [Ruboxistaurin] + CCNC(=O)c1noc(-c2cc(C(C)C)c(O)cc2O)c1-c1ccc(CN2CCOCC2)cc1 [Luminespib] (partner 0.01 µM)
An outline of the steps:
as §1

Compound in test [3]: CN(C)C[C@@H]1CCn2cc(c3ccccc32)C2=C(C(=O)NC2=O)c2cn(c3ccccc23)CCO1 [Ruboxistaurin] + C[C@]1(O)C[C@@H](c2nc(-c3ccc4ccc(-c5ccccc5)nc4c3)c3c(N)nccn32)C1 [Linsitinib] (partner 1 µM)
An outline of the steps: as §1

Compound in the test “Ruboxistaurin + AZD7762”: CN(C)C[C@@H]1CCn2cc(c3ccccc32)C2=C(C(=O)NC2=O)c2cn(c3ccccc23)CCO1 [Ruboxistaurin] + NC(=O)Nc1cc(-c2cccc(F)c2)sc1C(=O)N[C@H]1CCCNC1 [AZD7762] (partner 0.2 µM)
An outline of the steps:
as §1

Compound in the test “Ruboxistaurin + Olaparib”: CN(C)C[C@@H]1CCn2cc(c3ccccc32)C2=C(C(=O)NC2=O)c2cn(c3ccccc23)CCO1 [Ruboxistaurin] + O=C(c1cc(Cc2n[nH]c(=O)c3ccccc23)ccc1F)N1CCN(C(=O)C2CC2)CC1 [Olaparib] (partner 8 µM)
An outline of the steps: as §1

For 201T, the relative viability in test [1] (first compound 0.08 µM) stood at 0.357; in test [1] (first compound 0.8 µM) it was 0.344; in test [1] (first compound 2.53 µM), 0.353; in test [1] (first compound 8 µM), 0.37; in test [2] (first compound 0.08 µM), 1.09; in test [2] (first compound 0.8 µM) it was 1.01. The relative viability in test [2] (first compound 2.53 µM) was 1.09; in test [2] (first compound 8 µM) it was 1; in test [3] (first compound 0.08 µM), 1.03; in test [3] (first compound 0.8 µM), 0.874; in test [3] (first compound 2.53 µM), 1.06; in test [3] (first compound 8 µM), 0.891. Moreover, the relative viability is 0.539 with Ruboxistaurin + AZD7762 (first compound 0.08 µM); 0.549 with Ruboxistaurin + AZD7762 (first compound 0.8 µM); 0.581 with Ruboxistaurin + AZD7762 (first compound 2.53 µM); 0.641 with Ruboxistaurin + AZD7762 (first compound 8 µM); 0.821 in the test with Ruboxistaurin + Olaparib (first compound 0.08 µM); 0.837 with Ruboxistaurin + Olaparib (first compound 0.8 µM). The relative viability amounted to 0.852 in the test with Ruboxistaurin + Olaparib (first compound 2.53 µM) and 0.909 with Ruboxistaurin + Olaparib (first compound 8 µM).
Consider A-427, for which the relative viability in test [1] (first compound 0.08 µM) amounted to 0.554; in test [1] (first compound 0.8 µM) it was 0.524; in test [1] (first compound 2.53 µM), 0.5; in test [1] (first compound 8 µM), 0.538; in test [2] (first compound 0.08 µM) it was 0.974; in test [2] (first compound 0.8 µM) it was 0.757. Further, the relative viability in test [2] (first compound 2.53 µM) was 0.869; in test [2] (first compound 8 µM), 0.611; in test [3] (first compound 0.08 µM) it was 1.1; in test [3] (first compound 0.8 µM) it was 1.08; in test [3] (first compound 2.53 µM), 0.992; in test [3] (first compound 8 µM) it was 0.925. The relative viability with Ruboxistaurin + AZD7762 (first compound 0.08 µM) worked out at 0.849; with Ruboxistaurin + AZD7762 (first compound 0.8 µM), 0.639; with Ruboxistaurin + AZD7762 (first compound 2.53 µM), 0.709; in the test with Ruboxistaurin + AZD7762 (first compound 8 µM) it was 0.516; in the test with Ruboxistaurin + Olaparib (first compound 0.08 µM), 0.728; with Ruboxistaurin + Olaparib (first compound 0.8 µM) it was 0.672. For the same cell line, the relative viability in the test with Ruboxistaurin + Olaparib (first compound 2.53 µM) stood at 0.558; with Ruboxistaurin + Olaparib (first compound 8 µM), 0.534.
For the cell line ABC-1, the relative viability turned out to be 0.953 in test [1] (first compound 0.08 µM); 0.724 in test [1] (first compound 0.8 µM); 0.968 in test [1] (first compound 2.53 µM); 1.05 in test [1] (first compound 8 µM); 0.773 in test [2] (first compound 0.08 µM); 0.823 in test [2] (first compound 0.8 µM). The relative viability in test [2] (first compound 2.53 µM) is 0.564; in test [2] (first compound 8 µM), 0.669; in test [3] (first compound 0.08 µM), 0.767; in test [3] (first compound 0.8 µM), 0.865; in test [3] (first compound 2.53 µM), 0.969; in test [3] (first compound 8 µM) it was 0.625. Besides, the relative viability with Ruboxistaurin + AZD7762 (first compound 0.08 µM) turned out to be 0.662; with Ruboxistaurin + AZD7762 (first compound 0.8 µM), 0.894; with Ruboxistaurin + AZD7762 (first compound 2.53 µM), 0.771; with Ruboxistaurin + AZD7762 (first compound 8 µM), 0.598; with Ruboxistaurin + Olaparib (first compound 0.08 µM), 1.27; with Ruboxistaurin + Olaparib (first compound 0.8 µM), 0.81. For the same cell line, the relative viability with Ruboxistaurin + Olaparib (first compound 2.53 µM) was 1.03; with Ruboxistaurin + Olaparib (first compound 8 µM), 1.15.
As for BEN, the relative viability amounted to 0.415 in test [1] (first compound 0.08 µM); 0.453 in test [1] (first compound 0.8 µM); 0.522 in test [1] (first compound 2.53 µM); 0.495 in test [1] (first compound 8 µM); 0.418 in test [2] (first compound 0.08 µM); 0.391 in test [2] (first compound 0.8 µM). Moreover, the relative viability in test [2] (first compound 2.53 µM) is 0.384; in test [2] (first compound 8 µM) it was 0.179; in test [3] (first compound 0.08 µM) it was 1.04; in test [3] (first compound 0.8 µM) it was 0.883; in test [3] (first compound 2.53 µM) it was 0.9; in test [3] (first compound 8 µM) it was 0.721. Besides, the relative viability in the test with Ruboxistaurin + AZD7762 (first compound 0.08 µM) came out at 0.833; in the test with Ruboxistaurin + AZD7762 (first compound 0.8 µM) it was 0.668; with Ruboxistaurin + AZD7762 (first compound 2.53 µM), 0.639; in the test with Ruboxistaurin + AZD7762 (first compound 8 µM), 0.509; with Ruboxistaurin + Olaparib (first compound 0.08 µM), 1.31; with Ruboxistaurin + Olaparib (first compound 0.8 µM) it was 0.903. Also, the figures for the relative viability with Ruboxistaurin + Olaparib (first compound 2.53 µM) and with Ruboxistaurin + Olaparib (first compound 8 µM) were 1.34 and 0.888, respectively.
On to CAL-12T, for which the relative viability worked out at 0.476 in test [1] (first compound 0.08 µM); 0.426 in test [1] (first compound 0.8 µM); 0.419 in test [1] (first compound 2.53 µM); 0.483 in test [1] (first compound 8 µM); 0.399 in test [2] (first compound 0.08 µM); 0.472 in test [2] (first compound 0.8 µM). Also, the relative viability in test [2] (first compound 2.53 µM) was found to be 0.362; in test [2] (first compound 8 µM), 0.544; in test [3] (first compound 0.08 µM), 0.884; in test [3] (first compound 0.8 µM), 0.679; in test [3] (first compound 2.53 µM) it was 0.897; in test [3] (first compound 8 µM), 0.927. Also, the relative viability in the test with Ruboxistaurin + AZD7762 (first compound 0.08 µM) turned out to be 0.691; with Ruboxistaurin + AZD7762 (first compound 0.8 µM), 0.661; in the test with Ruboxistaurin + AZD7762 (first compound 2.53 µM), 0.748; with Ruboxistaurin + AZD7762 (first compound 8 µM), 0.65; in the test with Ruboxistaurin + Olaparib (first compound 0.08 µM) it was 0.749; with Ruboxistaurin + Olaparib (first compound 0.8 µM), 0.704. Besides, the relative viability was 0.901 with Ruboxistaurin + Olaparib (first compound 2.53 µM) and 0.751 with Ruboxistaurin + Olaparib (first compound 8 µM).
COR-L23: the relative viability turned out to be 0.261 in test [1] (first compound 0.08 µM); 0.267 in test [1] (first compound 0.8 µM); 0.313 in test [1] (first compound 2.53 µM); 0.372 in test [1] (first compound 8 µM); 0.799 in test [2] (first compound 0.08 µM); 0.55 in test [2] (first compound 0.8 µM). The relative viability came to 0.714 in test [2] (first compound 2.53 µM); 0.632 in test [2] (first compound 8 µM); 0.928 in test [3] (first compound 0.08 µM); 0.815 in test [3] (first compound 0.8 µM); 1.03 in test [3] (first compound 2.53 µM); 0.851 in test [3] (first compound 8 µM). Besides, the relative viability with Ruboxistaurin + Olaparib (first compound 0.08 µM) is 0.409; with Ruboxistaurin + Olaparib (first compound 0.8 µM) it was 0.377; in the test with Ruboxistaurin + Olaparib (first compound 2.53 µM) it was 0.387; with Ruboxistaurin + Olaparib (first compound 8 µM) it was 0.326.
Take COR-L 105: the relative viability in test [1] (first compound 0.08 µM) amounted to 0.418; in test [1] (first compound 0.8 µM), 0.389; in test [1] (first compound 2.53 µM) it was 0.411; in test [1] (first compound 8 µM), 0.416; in test [2] (first compound 0.08 µM), 1.06; in test [2] (first compound 0.8 µM) it was 0.784. For the same cell line, the relative viability in test [2] (first compound 2.53 µM) is 0.681; in test [2] (first compound 8 µM) it was 0.941; in test [3] (first compound 0.08 µM), 1.17; in test [3] (first compound 0.8 µM) it was 0.75; in test [3] (first compound 2.53 µM), 0.78; in test [3] (first compound 8 µM) it was 0.696. The relative viability is 0.802 with Ruboxistaurin + Olaparib (first compound 0.08 µM), 0.597 in the test with Ruboxistaurin + Olaparib (first compound 0.8 µM), 0.707 in the test with Ruboxistaurin + Olaparib (first compound 2.53 µM) and 0.677 in the test with Ruboxistaurin + Olaparib (first compound 8 µM).
Regarding ChaGo-K-1, the relative viability in test [1] (first compound 0.08 µM) came to 0.898; in test [1] (first compound 0.8 µM), 0.889; in test [1] (first compound 2.53 µM), 0.933; in test [1] (first compound 8 µM) it was 0.98; in test [2] (first compound 0.08 µM), 0.63; in test [2] (first compound 0.8 µM), 0.558. For the same cell line, the relative viability in test [2] (first compound 2.53 µM) amounted to 0.76; in test [2] (first compound 8 µM), 0.529; in the test with Ruboxistaurin + AZD7762 (first compound 0.08 µM), 0.86; with Ruboxistaurin + AZD7762 (first compound 0.8 µM), 0.856; with Ruboxistaurin + AZD7762 (first compound 2.53 µM), 0.908; with Ruboxistaurin + AZD7762 (first compound 8 µM), 0.911. The relative viability was 0.431 with Ruboxistaurin + Olaparib (first compound 0.08 µM), 0.39 with Ruboxistaurin + Olaparib (first compound 0.8 µM), 0.433 with Ruboxistaurin + Olaparib (first compound 2.53 µM) and 0.444 in the test with Ruboxistaurin + Olaparib (first compound 8 µM).
